≈ marks a conversion by molar mass, not a printed value.
Test: physchem
Conditions: organic solvent or mixture, Solubility Limit
Description: The first step was to gather solubility data on the fatty acids in readily available solvents. […] The available solvents included ethanol, isopropanol, hexane, and acetone.
The next step was to use spin-coating to apply the optimum mixture of each fatty acid/alcohol solution to microscope slides. This process began with cleaning the slide, then affixing it to the spin-coater by turning on the internal vacuum. Once the slide was in place, the chosen solution was applied by a syringe using a 0.02 micron filter. This filter was to ensure that only the pure solution and no contaminants or occasional precipitates made it onto the slide. The coated slide was then spun at 1000 rpm for thirty seconds and placed on a hot plate at 152 degrees Fahrenheit to vaporize any remaining solvent. The slide was allowed to cool for two minutes. Once cool, the slide was subjected to a simple yet effective test of hydrophobicity. This test consisted of merely placing a water droplet on the slide using a Pasteur pipet and eyeballing it to see if it even merited further characterization. This process was repeated for many slides, each time varying the type of fatty acid and the solvent as well as the concentration of the fatty acid in the solvent. […] Below is additional solubility data for Behenic Acid: […]

solubility: 300 mM (≈ 68.5 mg/mL)
Compound: CCCCCCCCCCCCCC(=O)O [Myristic Acid]
